In publication PMC8037530, “Synthesis and Hybrid SAR Property Modeling of Novel Cholinesterase Inhibitors” (International Journal of Molecular Sciences, 2021):
Where two headings read alike, the source gives them in different places.

What was measured:
[1] = Determination of lipophilicity by RP-HPLC (capacity factor k); type: physicochemical; settings: C18, isocratic MeOH 72%/H2O 28%, 40 °C
Procedure: The lipophilicity of all the target compounds was investigated by means of RP-HPLC determination of capacity factors k with a subsequent calculation of log k. The retention times of individual compounds were determined under isocratic conditions with methanol as an organic modifier in the mobile phase using end-capped non-polar C18 stationary RP columns.
The HPLC separation system Agilent 1200 series equipped with a DAD SL (Agilent Technologies) was used. A chromatographic column Symmetry® C18 5 μm, 4.6 × 250 mm, Part No. W21751W016 (Waters Corp., Milford, MA, USA) was applied. The HPLC separation process was monitored by the ChemStation for LC 3D chromatography software (Agilent Technologies). Isocratic elution by a mixture of MeOH p.a. (72%) and H2O-HPLC Mili-Q grade (28%) as a mobile phase was used for the determination of the capacity factor k. The total flow of the column was 1.0 mL/min, injection 20 μL, column temperature 40 °C, and sample temperature 10 °C. The detection wavelength of 210 nm was chosen. A KI methanolic solution was used for the determination of the dead times (tD). Retention times (tR) were measured in minutes. The capacity factors k were calculated according to the formula k = (tR − tD)/tD, where tR is the retention time of the solute and tD is the dead time obtained using an unretained analyte. Each experiment was repeated three times.

[2] = In vitro cell viability assay (CCK-8); type: cell-based; settings: human, THP-1 cells (human monocytic leukemia), read-out: relative cell viability
Procedure: The human monocytic leukemia THP-1 cell line was selected for this purpose, as we described previously. Nor 2 neither 28 show negative effect on relative cell viability up to the concentration of 30 µM. The relative cell viability was around 100% at this concentration. It makes compounds 2 and 28 interesting for further pharmacological evaluation and allows them to become lead compounds.
Human monocytic leukemia THP-1 cells were used for in vitro antiproliferative assays. Cells were obtained from the European Collection of Cell Cultures (ECACC, Salisbury, UK) and routinely cultured in Roswell Park Memorial Institute RPMI 1640 medium supplemented with 10% fetal bovine serum (FBS), 2% L-glutamine, 1% penicillin and streptomycin (all from Sigma-Aldrich) at 37 °C with 5% CO2. Cells were passaged twice a week. The effect of the compounds on cell viability was determined using a Cell Counting Kit-8 (CCK-8, 2-(2-methoxy-4-nitrophenyl)-3-(4-nitrophenyl)-5-(2,4-disulfophenyl)-2H-tetrazolium, monosodium salt, Sigma) according to the manufacturer’s instructions. The compounds were dissolved in DMSO and added to the cell suspension in the RPMI 1640 medium without FBS (5 × 10^5 cells/mL). […] After this incubation period, the relative cell viability (the ratio between cells treated with compounds and cells treated only with DMSO) was determined by CCK-8 kit.

[3] = molecular target: T1, AChE from electric eel (Electrophorus electricus) (Electrophorus electricus, UniProt O42275); assay: In vitro AChE inhibition, modified Ellman's method; type: biochemical
T1 construct: purchased Sigma, St. Louis, MO, USA
Procedure: (§1) The ability of all the prepared compounds to inhibit AChE from electric eel (Electrophorus electricus) and BChE from equine serum (both purchased from Sigma, St. Louis, MO, USA) was determined in vitro using a modified Ellman’s method, as described in detail elsewhere. This is a simple, rapid, and direct method to determine the SH and -S-S- group content in proteins. The enzyme activity is measured indirectly by quantifying the concentration of the 5-thio-2-nitrobenzoic acid ion formed in the reaction between the thiol reagent 5,5’-dithiobis-2nitrobenzoic acid (DTNB) and thiocholine, which is a product of acetylthiocholine hydrolysis catalyzed by cholinesterases. The effectiveness of the tested inhibitors is expressed as the IC50 values.
(§2) The enzyme activity in the final reaction mixture (2 mL) was 0.2 U/mL, the concentration of the substrate (acetylthiocholine or butyrythiocholine) was 40 µM, and the concentration of DTNB was 0.1 mM for all reactions. All reactions were carried out at 25 °C in the presence of phosphate-buffered saline (0.1 M, pH 7.4) in a glass cuvette with a 1 cm optical path. All the studied inhibitors were dissolved in DMSO (concentration 0.01 M) and then diluted in demineralized water as necessary. […] All measurements were carried out in triplicate, and the average values of the reaction rate (v0—reaction in the absence of the inhibitor, vi—reaction in the presence of the inhibitor) were used for construction of the dependence v0/vi vs. concentration of the inhibitor.

[4] = molecular target: T2, BChE from equine serum (Equus caballus, UniProt P81908); assay: In vitro BChE inhibition, modified Ellman's method; type: biochemical; settings: for SI (index selectivity) = IC50 (AChE)/IC50 (BChE): ratio IC50 AChE/IC50 BChE
T2 construct: BChE from equine serum; purchased Sigma, St. Louis, MO, USA; host or cells: equine serum
Procedure: as §1, §2

T1 sequence (O42275 24-633): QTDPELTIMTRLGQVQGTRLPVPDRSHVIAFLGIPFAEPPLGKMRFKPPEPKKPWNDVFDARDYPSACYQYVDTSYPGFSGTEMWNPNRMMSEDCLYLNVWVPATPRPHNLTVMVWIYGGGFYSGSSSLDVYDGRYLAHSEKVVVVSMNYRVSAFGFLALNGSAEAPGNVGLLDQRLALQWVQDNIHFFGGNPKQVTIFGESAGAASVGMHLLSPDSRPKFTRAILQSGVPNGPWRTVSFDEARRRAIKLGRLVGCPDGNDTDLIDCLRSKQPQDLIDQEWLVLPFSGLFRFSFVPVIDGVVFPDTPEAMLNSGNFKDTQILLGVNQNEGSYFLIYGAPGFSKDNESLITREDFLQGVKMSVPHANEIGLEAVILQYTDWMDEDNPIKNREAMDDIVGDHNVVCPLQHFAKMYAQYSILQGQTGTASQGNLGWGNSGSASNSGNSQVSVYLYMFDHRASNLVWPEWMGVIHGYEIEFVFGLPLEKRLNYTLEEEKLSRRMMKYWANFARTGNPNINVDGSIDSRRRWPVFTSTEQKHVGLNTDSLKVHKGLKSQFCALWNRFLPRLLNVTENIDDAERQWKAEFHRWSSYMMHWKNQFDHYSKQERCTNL
T2 sequence (P81908 whole entry): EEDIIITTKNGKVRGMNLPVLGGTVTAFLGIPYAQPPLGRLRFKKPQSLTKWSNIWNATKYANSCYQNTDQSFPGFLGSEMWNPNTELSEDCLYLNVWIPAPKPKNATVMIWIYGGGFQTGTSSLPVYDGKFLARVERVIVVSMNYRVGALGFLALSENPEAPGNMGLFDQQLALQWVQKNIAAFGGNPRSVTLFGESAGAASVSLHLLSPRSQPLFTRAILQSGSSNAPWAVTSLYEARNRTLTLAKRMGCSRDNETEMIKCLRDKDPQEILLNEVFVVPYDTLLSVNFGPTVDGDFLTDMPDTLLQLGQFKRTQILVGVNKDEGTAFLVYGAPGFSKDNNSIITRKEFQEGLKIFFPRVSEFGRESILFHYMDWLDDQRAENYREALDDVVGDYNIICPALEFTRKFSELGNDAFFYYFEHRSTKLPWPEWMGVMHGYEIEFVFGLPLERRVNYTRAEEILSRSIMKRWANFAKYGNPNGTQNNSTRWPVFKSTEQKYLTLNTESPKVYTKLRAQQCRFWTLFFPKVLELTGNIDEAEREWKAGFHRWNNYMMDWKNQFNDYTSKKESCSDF

Compound: O=C(Nc1ccc(C(=O)Nc2c(F)cc(F)cc2F)c(O)c1)OCc1ccccc1 [Compound 28, Benzyl{3-hydroxy-4-[(2,4,6-trifluorophenyl)carbamoyl]phenyl}carbamate]
- log k [1]: -0.0131
- viability at 24 h, 30 µM [2]: ~100%
- IC50 [3]: 49.87 ± 0.09 µM
- IC50 [4]: 31 ± 2.11 µM
- SI (index selectivity) = IC50 (AChE)/IC50 (BChE) [4]: 1.61

Compound: O=C(Nc1ccc(C(=O)Nc2ccc(Br)cc2Br)c(O)c1)OCc1ccccc1 [Compound 26, Benzyl{4-[(2,4-dibromophenyl)carbamoyl]-3-hydroxyphenyl}carbamate]
- log k [1]: 0.7366
- IC50 [3]: 94.9 ± 0.97 µM
- IC50 [4]: 262 ± 5.1 µM
- SI (index selectivity) = IC50 (AChE)/IC50 (BChE) [4]: 0.36

Compound: COc1ccccc1NC(=O)c1ccc(NC(=O)OCc2ccccc2)cc1O [Compound 2, Benzyl{3-hydroxy-4-[(2-methoxyphenyl)carbamoyl]phenyl}carbamate]
- log k [1]: 0.3368
- viability at 24 h, 30 µM [2]: ~100%
- IC50 [3]: 50.1 ± 1.57 µM
- IC50 [4]: 22.2 ± 0.53 µM
- SI (index selectivity) = IC50 (AChE)/IC50 (BChE) [4]: 2.26

Compound: O=C(Nc1ccc(C(=O)Nc2cccc(Cl)c2Cl)c(O)c1)OCc1ccccc1 [Compound 21, Benzyl{4-[(2,3-dichlorophenyl)carbamoyl]-3-hydroxyphenyl}carbamate]
- log k [1]: 0.5497
- IC50 [3]: 88.8 ± 1.42 µM
- IC50 [4]: 248 ± 14.9 µM
- SI (index selectivity) = IC50 (AChE)/IC50 (BChE) [4]: 0.36

Compound: O=C(Nc1ccc(C(=O)Nc2cc(C(F)(F)F)cc(C(F)(F)F)c2)c(O)c1)OCc1ccccc1 [Compound 27, Benzyl{4-[(3,5-di(trifluoromethyl))carbamoyl]-3-hydroxyphenyl}carbamate]
- log k [1]: 0.9667
- IC50 ([3]; mean ± SD, n = 3, electric eel AChE, 25 °C, pH 7.4, read-out: IC50 AChE): 59.4 ± 3.38 µM
- IC50 ([4]; mean ± SD, n = 3, equine serum BChE, 25 °C, pH 7.4, read-out: IC50 BChE): 146 ± 2.65 µM
- SI (index selectivity) = IC50 (AChE)/IC50 (BChE) [4]: 0.41

Compound: O=C(Nc1ccc(C(=O)Nc2c(Cl)cccc2Cl)c(O)c1)OCc1ccccc1 [Compound 23, Benzyl{4-[(2,6-dichlorophenyl)carbamoyl]-3-hydroxyphenyl}carbamate]
- log k [1]: 0.8125
- IC50 [3]: 76.74 ± 0.74 µM
- IC50 [4]: 117.6 ± 1.11 µM
- SI (index selectivity) = IC50 (AChE)/IC50 (BChE) [4]: 0.65

Compound: O=C(Nc1ccc(C(=O)Nc2ccc(C(F)(F)F)cc2)c(O)c1)OCc1ccccc1 [Compound 14, Benzyl(3-hydroxy-4-{[4-(trifluoromethyl)phenyl]carbamoyl}phenyl)carbamate]
- log k [1]: 0.7408
- IC50 [3]: 71.4 ± 5.04 µM
- IC50 [4]: 137 ± 21.9 µM
- SI (index selectivity) = IC50 (AChE)/IC50 (BChE) [4]: 0.52
